Experimental data: the supplement of paper PMC10307832

Legend:
Experiment in all cases: relative viability (nuclei count vs DMSO), 5 days (fraction); higher = more cells survive
GSK-J4 + Crizotinib = compound: CCOC(=O)CCNc1cc(N2CCc3ccccc3CC2)nc(-c2ccccn2)n1 [GSK-J4] + C[C@@H](Oc1cc(-c2cnn(C3CCNCC3)c2)cnc1N)c1c(Cl)ccc(F)c1Cl [Crizotinib] (partner 1 µM)
Procedure, shortened: (§1)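 Nuclei were stained with Hoechst during a one-step fixation (final 0.05% Triton X-100, 1% formaldehyde, 1 ug/ml Hoechst) carried out 5 days after dosing, then counted on 4× images. The cells, lung cancer lines in 1536-well plates, had been dosed by pin tool the day after seeding with one drug alone or a fixed anchor-drug dose plus five library-drug doses (not always all listed) in √10 steps. Relative viability is the nuclei count in treated wells divided by that in vehicle wells, and each value is the median of duplicate plates.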

AZ3146 + Vorinostat = compound: CN1CCC(CC1)OC2=CC(=C(C=C2)NC3=NC=C4C(=N3)N(C(=O)N4C)C5CCCC5)OC [AZ3146] + O=C(CCCCCCC(=O)Nc1ccccc1)NO [Vorinostat] (partner 1 µM)
Procedure, shortened: as §1

AZ3146 + Tozasertib = compound: CN1CCC(CC1)OC2=CC(=C(C=C2)NC3=NC=C4C(=N3)N(C(=O)N4C)C5CCCC5)OC [AZ3146] + Cc1cc(Nc2cc(N3CCN(C)CC3)nc(Sc3ccc(NC(=O)C4CC4)cc3)n2)n[nH]1 [Tozasertib] (partner 0.1 µM)
Procedure, shortened: as §1

GSK-J4 + Decitabine = compound: CCOC(=O)CCNc1cc(N2CCc3ccccc3CC2)nc(-c2ccccn2)n1 [GSK-J4] + Nc1ncn([C@H]2C[C@H](O)[C@@H](CO)O2)c(=O)n1 [Decitabine] (partner 2 µM)
Procedure, shortened: as §1

Cell Line | relative viability (GSK-J4 + Crizotinib; first compound 0.5 µM) | relative viability (GSK-J4 + Crizotinib; first compound 1.581 µM) | relative viability (GSK-J4 + Crizotinib; first compound 5 µM) | relative viability (GSK-J4 + Crizotinib; first compound 15.81 µM) | relative viability (GSK-J4 + Crizotinib; first compound 50 µM) | relative viability (AZ3146 + Vorinostat; first compound 0.08 µM) | relative viability (AZ3146 + Vorinostat; first compound 0.253 µM) | relative viability (AZ3146 + Vorinostat; first compound 0.8 µM) | relative viability (AZ3146 + Vorinostat; first compound 2.53 µM) | relative viability (AZ3146 + Vorinostat; first compound 8 µM) | relative viability (AZ3146 + Tozasertib; first compound 0.08 µM) | relative viability (AZ3146 + Tozasertib; first compound 0.253 µM) | relative viability (AZ3146 + Tozasertib; first compound 0.8 µM) | relative viability (AZ3146 + Tozasertib; first compound 2.53 µM) | relative viability (AZ3146 + Tozasertib; first compound 8 µM) | relative viability (GSK-J4 + Decitabine; first compound 0.5 µM) | relative viability (GSK-J4 + Decitabine; first compound 1.581 µM) | relative viability (GSK-J4 + Decitabine; first compound 5 µM) | relative viability (GSK-J4 + Decitabine; first compound 15.81 µM) | relative viability (GSK-J4 + Decitabine; first compound 50 µM)
NCI-H2009 | 0.955 | 1 | 0.77 | 1.05 | 0.789 | 0.635 | 0.673 | 0.743 | 0.704 | 0.543 | 0.669 | 0.689 | 0.463 | 0.557 | 0.434 | 0.348 | 0.358 | 0.313 | 0.319 | 0.297
ChaGo-K-1 | 1.03 |  | 0.879 | 1.12 | 0.926 | 0.711 | 0.691 | 0.703 | 0.718 | 0.521 | 0.192 | 0.229 | 0.22 | 0.235 | 0.206 | 0.535 |  | 0.557 | 0.479 | 0.471
NCI-H2023 | 0.542 | 0.621 | 0.678 | 0.597 | 0.654 | 0.422 | 0.991 | 0.407 | 0.471 | 0.193 | 0.331 | 0.328 | 0.171 | 0.157 | 0.147 | 0.212 | 0.195 | 0.209 | 0.174 | 0.195
NCI-H2405 | 0.847 | 0.794 |  | 0.751 | 0.664 | 0.799 | 0.969 | 1.04 | 1.14 | 0.927 | 0.609 | 0.784 | 0.63 | 0.577 | 0.397 | 0.719 | 0.781 |  | 0.689 | 0.757
HCC-44 | 0.759 | 0.705 | 0.696 | 0.825 | 0.755 | 1.07 | 1.07 | 1.05 | 1.12 | 1.13 | 0.502 | 0.944 | 0.904 | 0.372 | 0.315 | 0.932 | 0.716 | 0.823 | 1.03 | 1.06
EPLC-272H | 0.956 |  | 1.14 | 0.816 | 0.915 | 0.297 | 0.52 | 0.299 | 0.499 | 0.329 |  | 0.237 | 0.184 | 0.217 | 0.138 | 0.408 | 0.33 | 0.448 | 0.339 | 0.308
NCI-H322M | 0.976 | 0.779 | 0.828 | 0.91 | 0.83 | 0.798 | 0.839 | 0.916 | 0.904 | 0.849 | 0.455 | 0.466 | 0.439 | 0.495 | 0.509 | 0.687 | 0.687 | 0.81 | 0.379 | 0.671
SK-MES-1 | 0.987 | 0.977 | 0.724 | 0.939 | 0.942 | 1.04 | 1.17 | 1.14 | 1.19 | 0.701 | 0.891 | 0.97 | 0.77 | 0.276 | 0.211 | 0.389 | 0.359 | 0.386 | 0.321 | 0.323
NCI-H2170 | 1.09 | 1.14 | 1.19 | 1.09 | 1.11 | 0.815 | 0.763 | 0.854 | 0.867 | 0.751 | 0.593 | 0.838 | 0.644 | 0.561 | 0.266 | 0.453 | 0.422 | 0.459 | 0.463 | 0.464
H3255 | 0.869 | 0.767 | 0.855 | 0.764 | 0.642 | 0.737 | 0.746 | 0.856 | 0.887 | 0.897 | 0.598 | 0.475 | 0.61 | 0.646 | 0.196 | 0.619 |  | 0.593 | 0.463 | 0.409
EKVX | 0.755 | 0.883 | 0.927 | 0.91 | 0.889 | 0.608 | 0.81 | 0.818 | 0.885 | 0.681 | 0.314 | 0.399 | 0.364 | 0.378 | 0.232 | 0.297 |  | 0.355 | 0.324 | 0.299
NCI-H1993 | 0.826 | 0.789 | 0.938 | 0.841 | 0.796 | 0.724 | 1.03 | 1.06 | 1.05 | 0.559 | 0.544 | 0.548 | 0.6 | 0.544 | 0.51 | 0.643 | 0.554 | 0.388 | 0.6 | 0.507
NCI-H650 | 0.568 | 0.594 | 0.525 | 0.494 | 0.434 | 0.237 | 0.374 | 0.265 | 0.447 | 0.4 | 0.491 | 0.769 | 0.75 | 0.794 | 0.509 | 0.289 | 0.326 |  | 0.283 | 0.334
NCI-H460 | 0.983 | 0.734 | 0.832 | 0.321 | 0.821 | 0.623 | 0.813 | 0.707 | 0.693 | 0.0632 | 0.277 | 0.422 | 0.118 | 0.0719 | 0.0801 | 0.444 |  | 0.411 | 0.429 | 0.47
NCI-H1437 | 0.76 | 0.917 | 0.924 | 0.897 | 0.436 | 0.774 | 0.771 | 0.842 | 0.839 | 0.538 | 0.355 | 0.42 | 0.394 | 0.354 | 0.265 | 0.574 | 0.363 | 0.564 | 0.552 | 0.358
NCI-H2347 | 0.644 | 0.707 | 0.651 | 0.633 | 0.554 | 0.523 | 0.562 | 0.574 | 0.717 | 0.596 | 0.399 | 0.529 | 0.461 | 0.744 | 0.464 | 0.584 | 0.606 | 0.57 | 0.58 | 0.503
LCLC-103H | 1.01 | 0.811 | 1.18 | 0.916 | 0.988 | 0.51 | 0.726 | 0.78 | 0.844 | 0.711 | 0.418 | 0.523 | 0.498 | 0.45 | 0.409 | 0.784 | 0.624 | 0.786 | 0.722 | 0.572
NCI-H661 | 0.873 | 0.969 | 1.04 | 0.913 | 0.814 | 0.701 | 0.846 | 0.786 | 0.813 | 0.505 | 0.359 | 0.362 | 0.357 | 0.347 | 0.358 | 0.548 | 0.5 | 0.485 | 0.497 | 0.441
NCI-H1944 | 1.14 | 1.06 | 1.11 | 1.1 | 1.07 | 0.425 | 0.579 | 0.606 | 0.616 | 0.543 | 0.219 | 0.241 | 0.246 | 0.235 | 0.224 | 0.411 | 0.381 |  | 0.367 | 0.412
NCI-H358 | 0.643 | 0.579 | 0.537 | 0.55 | 0.589 | 0.571 | 0.687 | 0.631 | 0.723 | 0.171 | 0.0884 | 0.107 | 0.105 | 0.123 | 0.12 | 0.206 |  | 0.216 | 0.177 | 0.159
NCI-H2126 | 0.99 | 0.823 | 1 | 0.979 | 0.917 | 0.504 | 0.743 | 0.709 | 0.835 | 0.66 | 0.71 | 0.803 | 0.722 | 0.378 | 0.234 | 0.625 | 0.573 | 0.59 | 0.53 | 0.539
HCC-78 | 0.346 | 0.297 | 0.378 |  | 0.354 |  | 0.496 | 0.435 | 0.354 | 0.471 | 0.315 | 0.449 | 0.347 | 0.404 | 0.44 | 0.726 | 0.633 | 0.71 | 0.549 | 0.621
PC-14 | 0.858 | 0.896 | 0.843 | 0.842 | 0.855 | 0.538 | 0.745 | 0.546 | 0.359 | 0.0815 | 0.33 | 0.589 | 0.543 | 0.386 | 0.0776 | 0.231 | 0.218 | 0.259 | 0.232 | 0.268
NCI-H520 | 0.737 | 0.633 | 0.846 | 0.805 | 0.553 | 0.588 | 0.7 | 0.685 | 0.783 | 0.537 | 0.345 | 0.433 | 0.371 | 0.423 | 0.408 | 0.51 | 0.336 | 0.541 | 0.502 | 0.446
LXF-289 | 0.71 | 0.768 | 0.776 | 0.806 | 0.753 | 0.752 | 0.827 | 0.796 | 0.872 | 0.587 | 0.194 | 0.189 | 0.158 | 0.216 | 0.189 | 0.388 | 0.376 | 0.403 | 0.394 | 0.406
NCI-H441 | 0.74 | 0.574 | 0.643 | 0.697 | 0.775 | 0.674 | 0.803 | 0.557 | 0.821 | 0.647 | 0.676 | 0.701 | 0.595 | 0.588 | 0.266 | 0.203 | 0.279 | 0.205 | 0.217 | 0.271
NCI-H596 | 1.11 | 1.04 | 0.932 | 0.949 | 0.992 | 0.53 | 0.541 | 0.586 | 0.571 | 0.587 | 0.949 | 0.972 | 0.979 | 0.728 | 0.524 | 0.923 | 1.03 | 0.906 | 0.773 | 1.02
